Consider 4 molecules from ChEMBL document CHEMBL3046163, “Cross-resistance relationships between neonicotinoids and pymetrozine in Bemisia tabaci (Hemiptera: Aleyrodidae)” (2010).

Each structure is given as a SMILES string. ≈ marks a conversion by molar mass, not a printed value.

Common to all, as to assay type: functional
The subject of test [1] is Bemisia tabaci. The experiment in a line: Resistance ratio of LC50 for Bemisia tabaci biotype-Q Q3 (sweet potato whitefly) to LC50 for Bemisia tabaci LABS.
For test [2], the system named is Bemisia tabaci. The test is described as follows: Insecticidal activity against Bemisia tabaci biotype-Q Q1 (sweet potato whitefly) after 48 hr by leaf-dip bioassay. The following applies: biotype-Q Q1, 48 h.
In test [3] the test system is Bemisia tabaci. The test is described as follows: Resistance ratio of LC50 for Bemisia tabaci biotype-Q Q1 (sweet potato whitefly) to LC50 for Bemisia tabaci LABS.
Test [4] relates to Bemisia tabaci. The test is described as follows: Resistance ratio of LC50 for Bemisia tabaci biotype-B B4 (sweet potato whitefly) to LC50 for Bemisia tabaci LABS.
The subject of test [5] is Bemisia tabaci. The experiment in a line: Insecticidal activity against Bemisia tabaci biotype-B B4 (sweet potato whitefly) after 48 hr by leaf-dip bioassay. The following applies: biotype-B B4, 48 h.
In test [6] the test system is Bemisia tabaci. The test is described as follows: Selectivity ratio of LC50 for pymetrozine-selected Bemisia tabaci B2 (sweet potato whitefly) to LC50 for Bemisia tabaci B2.
Test [7] relates to Bemisia tabaci. The experiment in a line: Insecticidal activity against Bemisia tabaci biotype-B B2 (sweet potato whitefly) after 48 hr by leaf-dip bioassay. The note with it: biotype-B B2, 48 h.
Test [8] deals with Bemisia tabaci. The test is described as follows: Resistance ratio of LC50 for Bemisia tabaci biotype-Q Q2 (sweet potato whitefly) to LC50 for Bemisia tabaci LABS.
The test system of test [9] is Bemisia tabaci. The experiment in a line: Resistance ratio of LC50 for Bemisia tabaci biotype-B B2 (sweet potato whitefly) to LC50 for Bemisia tabaci LABS.
Test [10] relates to Bemisia tabaci. The test is described as follows: Insecticidal activity against Bemisia tabaci biotype-Q Q2 (sweet potato whitefly) after 48 hr by leaf-dip bioassay. The following applies: biotype-Q Q2, 48 h.
Test [11] deals with Bemisia tabaci. The test is described as follows: Insecticidal activity against Bemisia tabaci biotype-Q Q3 (sweet potato whitefly) after 48 hr by leaf-dip bioassay. The note with it: biotype-Q Q3, 48 h.
Test [12] relates to Bemisia tabaci. The experiment in a line: Insecticidal activity against Bemisia tabaci LABS (sweet potato whitefly) after 48 hr by leaf-dip bioassay.
For test [13], the system named is Bemisia tabaci. The test is described as follows: Insecticidal activity against pymetrozine-selected Bemisia tabaci B2 (sweet potato whitefly) after 48 hr by leaf-dip bioassay. The note with it: B2, 48 h.
The subject of test [14] is Bemisia tabaci. The experiment in a line: Insecticidal activity against Bemisia tabaci biotype-B B3 (sweet potato whitefly) after 48 hr by leaf-dip bioassay. The following applies: biotype-B B3, 48 h.
Test [15] concerns Bemisia tabaci. The experiment in a line: Resistance ratio of LC50 for Bemisia tabaci biotype-B B3 (sweet potato whitefly) to LC50 for Bemisia tabaci LABS.
Test [16] has as its system Bemisia tabaci. The experiment in a line: Insecticidal activity against Bemisia tabaci biotype-B B1 (sweet potato whitefly) after 48 hr by leaf-dip bioassay. The note with it: biotype-B B1, 48 h.
The test system of test [17] is Bemisia tabaci. The experiment in a line: Resistance ratio of LC50 for Bemisia tabaci biotype-B B1 (sweet potato whitefly) to LC50 for Bemisia tabaci LABS.
For test [18], the system named is Bemisia tabaci. The experiment in a line: Insecticidal activity against Bemisia tabaci biotype-Q Q1 (sweet potato whitefly) after 96 hr by leaf-dip bioassay. The following applies: biotype-Q Q1, 96 h.
In test [19] the test system is Bemisia tabaci. The experiment in a line: Insecticidal activity against Bemisia tabaci biotype-Q Q2 (sweet potato whitefly) after 96 hr by leaf-dip bioassay. The note with it: biotype-Q Q2, 96 h.
Test [20] deals with Bemisia tabaci. The test is described as follows: Selectivity ratio of LC50 for thiamethoxam-selected Bemisia tabaci B1B3 (sweet potato whitefly) to LC50 for Bemisia tabaci B1B3.
The test system of test [21] is Bemisia tabaci. The experiment in a line: Insecticidal activity against thiamethoxam-selected Bemisia tabaci B1B3 (sweet potato whitefly) after 96 hr by leaf-dip bioassay. The following applies: B1B3, 96 h.
The subject of test [22] is Bemisia tabaci. The experiment in a line: Insecticidal activity against pymetrozine-selected Bemisia tabaci B2 (sweet potato whitefly) after 96 hr by leaf-dip bioassay. The following applies: B2, 96 h.
Test [23] relates to Bemisia tabaci. The test is described as follows: Insecticidal activity against Bemisia tabaci biotype-B B2 (sweet potato whitefly) after 96 hr by leaf-dip bioassay. The note with it: biotype-B B2, 96 h.
For test [24], the system named is Bemisia tabaci. The experiment in a line: Insecticidal activity against pymetrozine-selected Bemisia tabaci B1B3 (sweet potato whitefly) after 96 hr by leaf-dip bioassay. The note with it: B1B3, 96 h.
Test [25] deals with Bemisia tabaci. The experiment in a line: Insecticidal activity against Bemisia tabaci B1B3 (sweet potato whitefly) after 96 hr by leaf-dip bioassay. The following applies: B1B3, 96 h.
Test [26] concerns Bemisia tabaci. The experiment in a line: Selectivity ratio of LC50 for pymetrozine-selected Bemisia tabaci B1B3 (sweet potato whitefly) to LC50 for Bemisia tabaci B1B3.
The test system of test [27] is Bemisia tabaci. The test is described as follows: Insecticidal activity against Bemisia tabaci LABS (sweet potato whitefly) after 96 hr by leaf-dip bioassay.
Test [28] relates to Bemisia tabaci. The experiment in a line: Insecticidal activity against Bemisia tabaci biotype-B B1 (sweet potato whitefly) after 96 hr by leaf-dip bioassay. The following applies: biotype-B B1, 96 h.
For test [29], the system named is Bemisia tabaci. The experiment in a line: Insecticidal activity against Bemisia tabaci biotype-B B3 (sweet potato whitefly) after 96 hr by leaf-dip bioassay. The following applies: biotype-B B3, 96 h.
In test [30] the test system is Bemisia tabaci. The test is described as follows: Insecticidal activity against Bemisia tabaci biotype-B B4 (sweet potato whitefly) after 96 hr by leaf-dip bioassay. The following applies: biotype-B B4, 96 h.
Test [31] has as its system Bemisia tabaci. The experiment in a line: Insecticidal activity against Bemisia tabaci biotype-Q Q3 (sweet potato whitefly) after 96 hr by leaf-dip bioassay. The note with it: biotype-Q Q3, 96 h.
In test [32] the test system is Bemisia tabaci. The experiment in a line: Insecticidal activity against pymetrozine-selected Bemisia tabaci B1B3 (sweet potato whitefly) after 48 hr by leaf-dip bioassay. The following applies: B1B3, 48 h.
The subject of test [33] is Bemisia tabaci. The experiment in a line: Insecticidal activity against thiamethoxam-selected Bemisia tabaci B1B3 (sweet potato whitefly) after 48 hr by leaf-dip bioassay. The note with it: B1B3, 48 h.
In test [34] the test system is Bemisia tabaci. The test is described as follows: Insecticidal activity against Bemisia tabaci B1B3 (sweet potato whitefly) after 48 hr by leaf-dip bioassay. The note with it: B1B3, 48 h.

One may read the LC50 as the concentration lethal to half of the exposed cells or organisms. Lower therefore signals a more lethal substance. For the molecule `O=[N+]([O-])/N=C1\NCCN1Cc1ccc(Cl)nc1` [IMIDACLOPRID], the RatioLC50 with Bemisia tabaci [1] came out at 850; in the test on Bemisia tabaci [3] it was 1.8; in the test on Bemisia tabaci [4] it was 230; with Bemisia tabaci [6], 0.92; in the test on Bemisia tabaci [8], 420; with Bemisia tabaci [9], 3.5. For the same molecule, the figures for the RatioLC50 with Bemisia tabaci [15] and with Bemisia tabaci [17] were 230 and 1.2, respectively. The LC50 worked out at 8.5 µg/mL (≈ 33.2 µM) with Bemisia tabaci [2]; 1100 µg/mL (≈ 4300 µM) with Bemisia tabaci [5]; 17 µg/mL (≈ 66.5 µM) in the test with Bemisia tabaci [7]; 2000 µg/mL (≈ 7820 µM) in the test with Bemisia tabaci [10]; 4100 µg/mL (≈ 16000 µM) with Bemisia tabaci [11]; 4.8 µg/mL (≈ 18.8 µM) with Bemisia tabaci [12]. Further, the LC50 in the test on Bemisia tabaci [13] came out at 23 µg/mL (≈ 90 µM); in the test on Bemisia tabaci [14], 1100 µg/mL (≈ 4300 µM); with Bemisia tabaci [16], 5.8 µg/mL (≈ 22.7 µM).

With `C/C(=N\C#N)N(C)Cc1ccc(Cl)nc1` [ACETAMIPRID], the RatioLC50 is given as 57 with Bemisia tabaci [1]; 0.95 in the test on Bemisia tabaci [3]; 15 with Bemisia tabaci [4]; 20 with Bemisia tabaci [8]; 1.2 in the test with Bemisia tabaci [9]; 30 in the test with Bemisia tabaci [15]. The RatioLC50 in the test with Bemisia tabaci [17] is reported as 2.1. Moreover, the LC50 with Bemisia tabaci [2] came to 3.5 µg/mL (≈ 15.7 µM); in the test on Bemisia tabaci [5], 54 µg/mL (≈ 243 µM); in the test on Bemisia tabaci [7], 4.3 µg/mL (≈ 19.3 µM); in the test on Bemisia tabaci [10], 74 µg/mL (≈ 332 µM); in the test on Bemisia tabaci [11], 210 µg/mL (≈ 943 µM); in the test on Bemisia tabaci [12], 3.7 µg/mL (≈ 16.6 µM). For the same molecule, the LC50 was 110 µg/mL (≈ 494 µM) in the test on Bemisia tabaci [14] and 7.6 µg/mL (≈ 34.1 µM) with Bemisia tabaci [16].

For the molecule `CC1=NNC(=O)N(/N=C/c2cccnc2)C1` [PYMETROZINE], the LC50 in the test with Bemisia tabaci [18] came to 14 µg/mL (≈ 64.4 µM); in the test on Bemisia tabaci [19], 930 µg/mL (≈ 4280 µM); with Bemisia tabaci [21], 1100 µg/mL (≈ 5060 µM); with Bemisia tabaci [22] it was 15000 µg/mL (≈ 69100 µM); in the test on Bemisia tabaci [23] it was 220 µg/mL (≈ 1010 µM); with Bemisia tabaci [24] it was 3200 µg/mL (≈ 14700 µM). Also, the LC50 stood at 140 µg/mL (≈ 644 µM) with Bemisia tabaci [25]; 2.4 µg/mL (≈ 11 µM) with Bemisia tabaci [27]; 3.9 µg/mL (≈ 18 µM) with Bemisia tabaci [28]; 1200 µg/mL (≈ 5520 µM) in the test with Bemisia tabaci [29]; 1200 µg/mL (≈ 5520 µM) in the test on Bemisia tabaci [30]; 4600 µg/mL (≈ 21200 µM) in the test with Bemisia tabaci [31]. Moreover, the RatioLC50 is listed as 1900 in the test with Bemisia tabaci [1]; 7.9 in the test on Bemisia tabaci [20]; 5.8 in the test on Bemisia tabaci [3]; 520 in the test with Bemisia tabaci [4]; 54 in the test on Bemisia tabaci [6]; 390 in the test on Bemisia tabaci [8]. For the same molecule, the RatioLC50 in the test with Bemisia tabaci [9] is listed as 92; in the test on Bemisia tabaci [26] it was 23; with Bemisia tabaci [15], 1100; in the test with Bemisia tabaci [17], 1.6.

As for `CN1COCN(Cc2cnc(Cl)s2)/C1=N\[N+](=O)[O-]` [THIAMETHOXAM], the RatioLC50 is listed as 490 in the test with Bemisia tabaci [1]; 7 in the test on Bemisia tabaci [20]; 3.7 with Bemisia tabaci [3]; 73 in the test with Bemisia tabaci [4]; 0.29 with Bemisia tabaci [6]; 240 in the test on Bemisia tabaci [8]. Also, the RatioLC50 in the test on Bemisia tabaci [9] is on record as 2.9; in the test with Bemisia tabaci [26] it was 4.5; in the test on Bemisia tabaci [15], 150; in the test with Bemisia tabaci [17], 6.3. In addition, the LC50 with Bemisia tabaci [2] was 15 µg/mL (≈ 51.4 µM); in the test on Bemisia tabaci [5] it was 300 µg/mL (≈ 1030 µM); with Bemisia tabaci [7], 12 µg/mL (≈ 41.1 µM); in the test with Bemisia tabaci [32], 290 µg/mL (≈ 994 µM); in the test with Bemisia tabaci [33], 450 µg/mL (≈ 1540 µM); in the test on Bemisia tabaci [10], 980 µg/mL (≈ 3360 µM). Further, the LC50 in the test on Bemisia tabaci [11] was 2000 µg/mL (≈ 6860 µM); in the test with Bemisia tabaci [12], 4.1 µg/mL (≈ 14.1 µM); in the test with Bemisia tabaci [13], 8.6 µg/mL (≈ 29.5 µM); in the test with Bemisia tabaci [14], 100 µg/mL (≈ 343 µM); in the test on Bemisia tabaci [16], 4.5 µg/mL (≈ 15.4 µM); in the test with Bemisia tabaci [34], 64 µg/mL (≈ 219 µM).
